Values after ≈ are worked out from the molar mass of the structure shown. Where a SMILES comes first, the peptide text is derived from it.
How the values were obtained:
C. albicans ATCC 10231 = settings: ATCC 10231, 18 h
Protocol: (§1) Tools and materials were sterilized in an autoclave for 15 min at 121°C. Fungal culture was grown in agar media (Potato Dextrose agar) by picking some fungal colony using an inoculating loop, followed by incubation at 30°C for 24–48 h. Fungal culture was then suspended in liquid media (Potato Dextrose Broth). The suspended fungal culture was then incubated for 24–48 h at 30°C. The suspended fungal culture was then incubated at 30°C for 24 h and standardized equal to 0.5 Mc Farland (2 × 10^8 CFU ml^−1). The culture was diluted into the concentration of 5 × 10^5 CFU ml^−1.
(§2) Six tetrapeptides and six cyclotetrapeptides were dissolved in DMSO 2% with a concentration of 1 µg mL^−1. Each solution was dissolved gradually. Subsequently, 12 sample solutions, ciprofloxacin, nystatin, ketoconazole and DMSO 2% were incubated on a 96-well microplate at 37°C for 18 h. The result was interpreted using a spectrophotometer, with a wavelength of 600 nm. MIC was measured as the percentage of microbial inhibition and cell death.

[1] = tested on: Trichophyton mentagrophytes; settings: synthetic product of solution-phase synthesis; strain not given; cited from earlier work
Protocol: (§3) c-PLAI [cyclo(pro-leu-ala-ile)] is a cyclotetrapeptide that was isolated by Rungprom and co-workers in 2008 from marine Pseudomonas sp., which was associated with the Japanese seaweed Diginea sp.. All the amino acid residues of c-PLAI were reported to be L-configured. […] Later, c-PLAI was successfully synthesized using a convergent solution-phase method. ... || The antimicrobial properties of all linear and cyclic tetrapeptides were evaluated (table 3). […] The lack of information regarding the microbial strains used in the previous report led us to the assumption that the use of different strains in the assay could lead to a differen ...

Pseudomonas aeruginosa = settings: synthetic product of solution-phase synthesis; strain not given; cited from earlier work
Protocol: as §3

Klebsiella pneumoniae = settings: synthetic product of solution-phase synthesis; strain not given; cited from earlier work
Protocol: as §3

Candida albicans = settings: synthetic product of solution-phase synthesis; strain not given; cited from earlier work
Protocol: as §3

T. mentagrophyte = experiment: microbe, parasite or virus in culture; settings: 18 h
Protocol: as §1, §2

K. pneumonia ATCC 2357 = experiment: microbe, parasite or virus in culture; settings: ATCC 2357, 18 h
Protocol: as §1, with “Bacterial” for “Fungal”, “(Mueller Hinton” for “(Potato Dextrose”, “bacterial” for “fungal”, “37°C” for “30°C”, “24” for “24–48”, “bacterial” for “fungal culture was then incubated for 24–48 h at 30°C. The suspended fungal”
as §2

E. coli ATCC 11229 = experiment: microbe, parasite or virus in culture; settings: ATCC 11229, 18 h
Protocol: as §1, with “Bacterial” for “Fungal”, “(Mueller Hinton” for “(Potato Dextrose”, “bacterial” for “fungal”, “37°C” for “30°C”, “24” for “24–48”, “bacterial” for “fungal culture was then incubated for 24–48 h at 30°C. The suspended fungal”
as §2

B. cereus ATCC 11778 = experiment: microbe, parasite or virus in culture; settings: ATCC 11778, 18 h
Protocol: as §1, with “Bacterial” for “Fungal”, “(Mueller Hinton” for “(Potato Dextrose”, “bacterial” for “fungal”, “37°C” for “30°C”, “24” for “24–48”, “bacterial” for “fungal culture was then incubated for 24–48 h at 30°C. The suspended fungal”
as §2

S. aureus ATCC 6538 = experiment: microbe, parasite or virus in culture; settings: ATCC 6538, 18 h
Protocol: as §1, with “Bacterial” for “Fungal”, “(Mueller Hinton” for “(Potato Dextrose”, “bacterial” for “fungal”, “37°C” for “30°C”, “24” for “24–48”, “bacterial” for “fungal culture was then incubated for 24–48 h at 30°C. The suspended fungal”
as §2

Bacillus subtilis = settings: c-PLAI isolated from marine Pseudomonas sp.; cited from earlier work
Description: (§4) c-PLAI [cyclo(pro-leu-ala-ile)] is a cyclotetrapeptide that was isolated by Rungprom and co-workers in 2008 from marine Pseudomonas sp., which was associated with the Japanese seaweed Diginea sp.. All the amino acid residues of c-PLAI were reported to be L-configured. […] Later, c-PLAI was successfully synthesized using a convergent solution-phase method. ...

Vibrio anguillarum = settings: c-PLAI isolated from marine Pseudomonas sp.; cited from earlier work
Description: as §4

Escherichia coli = settings: c-PLAI isolated from marine Pseudomonas sp.; cited from earlier work
Description: as §4

Micrococcus luteus = settings: c-PLAI isolated from marine Pseudomonas sp.; cited from earlier work
Description: as §4

Microsporum andouinii = settings: synthetic product of solution-phase synthesis; strain not given; cited from earlier work
Description: as §4

Staphylococcus aureus = settings: c-PLAI isolated from marine Pseudomonas sp.; cited from earlier work
Description: as §4

Compound: CC[C@H](C)[C@@H]1NC(=O)[C@H](C)NC(=O)[C@H](CC(C)C)NC(=O)[C@@H]2CCCN2C1=O [c-PLAI, cyclo(pro-leu-ala-ile)] (cyclo(PLAI))
- minimum inhibitory concentration (MIC) C. albicans ATCC 10231 (C. albicans ATCC 10231): >1000 µg/mL
- minimum inhibitory concentration (MIC) Trichophyton mentagrophytes [1]: 6 µg/mL (≈ 15.2 µM)
- minimum inhibitory concentration (MIC) Pseudomonas aeruginosa (Pseudomonas aeruginosa): 6 µg/mL (≈ 15.2 µM)
- minimum inhibitory concentration (MIC) Klebsiella pneumoniae (Klebsiella pneumoniae): 6 µg/mL (≈ 15.2 µM)
- minimum inhibitory concentration (MIC) Candida albicans (Candida albicans): 6 µg/mL (≈ 15.2 µM)
- minimum inhibitory concentration (MIC) T. mentagrophyte (T. mentagrophyte): 125 µg/mL (≈ 317 µM)
- minimum inhibitory concentration (MIC) K. pneumonia ATCC 2357 (K. pneumonia ATCC 2357): 500 µg/mL (≈ 1270 µM)
- minimum inhibitory concentration (MIC) E. coli ATCC 11229 (E. coli ATCC 11229): 250 µg/mL (≈ 634 µM)
- minimum inhibitory concentration (MIC) B. cereus ATCC 11778 (B. cereus ATCC 11778): 125 µg/mL (≈ 317 µM)
- minimum inhibitory concentration (MIC) S. aureus ATCC 6538 (S. aureus ATCC 6538): >1000 µg/mL
- antibacterial activity against Bacillus subtilis (Bacillus subtilis): inactive
- antibacterial activity against Vibrio anguillarum (Vibrio anguillarum): inactive
- antibacterial activity against Escherichia coli (Escherichia coli): inactive
- antibacterial activity against Micrococcus luteus (Micrococcus luteus): inactive
- minimum inhibitory concentration (MIC) Microsporum andouinii (Microsporum andouinii): 6 µg/mL (≈ 15.2 µM)
- antibacterial activity against Staphylococcus aureus (Staphylococcus aureus): inactive

Reference: PMC8074941, “Synthesis of cyclotetrapeptide analogues of c-PLAI and evaluation of their antimicrobial properties” (Royal Society Open Science, 2021)
